Experimental data reported in PMC4914440 (Pharmacological research, 2016).

How the values were obtained:
5-HT2A receptor [1] = target: T1, 5-HT2A receptor (Homo sapiens, UniProt P28223); assay: Intracellular calcium assay of Gq signaling, HEK293 cells; assay type: cell-based
M3 muscarinic receptor = M3 muscarinic receptor (Homo sapiens, UniProt P20309); assay: Intracellular calcium assay, untransfected HEK293 cells with endogenous receptor; assay type: cell-based
untransfected CHO cells = assay: Intracellular calcium assay, control cells; assay type: cell-based; settings: data not shown
5-HT6 receptor [2] = target: T2, 5-HT6 receptor (Rattus norvegicus, UniProt P31388); assay: cAMP-Glo assay of Gs signaling, HeLa cells; assay type: cell-based; settings: 30 μM
untransfected HeLa cells = assay: cAMP-Glo assay, control cells; assay type: cell-based, human; settings: efavirenz 30 μM, clozapine 30 μM, 5-HT 1 μM
[3] = tested on: endogenous β-adrenergic receptor; assay: cAMP-Glo assay, untransfected HeLa cells stimulated with; assay type: cell-based, human
5-HT2A receptor [4] = target: T1, 5-HT2A receptor; assay: Prolonged; assay type: cell-based; settings: for antagonism of 100 nM 5-HT calcium response: 10 μM efavirenz
5-HT2A receptor [5] = target: T1, 5-HT2A receptor; assay: Prolonged; assay type: cell-based; settings: 3 day exposure to 30 μM
MAO-A = MAO-A (Homo sapiens, UniProt P21397); assay: Inhibition of monoamine oxidase A activity, kynuramine substrate; assay type: biochemical; settings: 10 μM
h5-HT2C = target: T3, h5-HT2C (Homo sapiens, UniProt P28335); settings: 10 μM efavirenz; cited from earlier work
T3 sequence (P28335 33-458): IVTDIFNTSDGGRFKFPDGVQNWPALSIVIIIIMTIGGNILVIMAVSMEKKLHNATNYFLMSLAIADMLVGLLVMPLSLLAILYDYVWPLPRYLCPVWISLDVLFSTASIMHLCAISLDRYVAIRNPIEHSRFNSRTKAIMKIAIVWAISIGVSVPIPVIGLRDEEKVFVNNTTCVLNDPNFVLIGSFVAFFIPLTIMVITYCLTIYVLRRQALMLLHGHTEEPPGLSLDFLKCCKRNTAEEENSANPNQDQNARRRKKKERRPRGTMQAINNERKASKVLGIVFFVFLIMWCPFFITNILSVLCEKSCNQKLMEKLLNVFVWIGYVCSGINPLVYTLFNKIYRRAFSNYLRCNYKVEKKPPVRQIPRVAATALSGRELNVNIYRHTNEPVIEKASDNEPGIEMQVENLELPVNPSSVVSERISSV

h5-HT1A = settings: 10 μM efavirenz; cited from earlier work
[6] = cited from earlier work
[7] = cited from earlier work; remark: listed apart in the source
GABAA receptor = settings: cited from earlier work
DAT = settings: cited from earlier work
[8] = cited from earlier work; remark: listed apart in the source
[9] = cited from earlier work; remark: listed apart in the source
dopamine receptors = settings: 10 μM; cited from earlier work
NMDA receptors = settings: 10 μM; cited from earlier work
muscarinic receptors = settings: 10 μM; cited from earlier work
HIV-1 = settings: cited from earlier work
5-HT2C receptor = target: T4, 5-HT2C receptor (Homo sapiens, UniProt P28335); assay: Competition radioligand binding, concentration-response
T4 sequence (P28335 33-458): T3 sequence (P28335 33-458)

5-HT6 receptor [10] = target: T2, 5-HT6 receptor; assay: as above
h5-HT2B = h5-HT2B (Homo sapiens, UniProt P41595); assay: Radioligand displacement by a fixed drug concentration, [3H]LSD; settings: 10 μM efavirenz
r5-HT6 = r5-HT6 (Rattus norvegicus, UniProt P31388); assay: as above; settings: 10 μM efavirenz
h5-HT5A = h5-HT5A (Homo sapiens, UniProt P47898); assay: as above; settings: 10 μM efavirenz
m5-HT3 (5-HT3A receptor) = m5-HT3 (5-HT3A receptor) (Mus musculus, UniProt P23979); assay: Radioligand displacement by a fixed drug concentration, [3H]BRL-43694; settings: 10 μM efavirenz
gp5-HT4 = gp5-HT4 (Cavia porcellus, UniProt O70528); settings: 10 μM efavirenz
gp5-HT4, sequence (O70528 whole entry): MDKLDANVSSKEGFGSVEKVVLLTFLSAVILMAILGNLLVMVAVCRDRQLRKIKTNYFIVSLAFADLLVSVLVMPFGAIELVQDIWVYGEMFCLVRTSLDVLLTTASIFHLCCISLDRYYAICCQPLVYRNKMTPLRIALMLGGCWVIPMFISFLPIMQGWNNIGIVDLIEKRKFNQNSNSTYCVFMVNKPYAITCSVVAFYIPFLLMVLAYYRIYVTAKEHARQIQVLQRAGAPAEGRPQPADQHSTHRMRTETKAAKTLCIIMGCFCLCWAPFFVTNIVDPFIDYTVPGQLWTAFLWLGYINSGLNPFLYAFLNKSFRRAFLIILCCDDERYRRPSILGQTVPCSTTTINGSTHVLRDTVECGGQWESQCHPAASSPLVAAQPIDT

T1 sequence (P28223 whole entry): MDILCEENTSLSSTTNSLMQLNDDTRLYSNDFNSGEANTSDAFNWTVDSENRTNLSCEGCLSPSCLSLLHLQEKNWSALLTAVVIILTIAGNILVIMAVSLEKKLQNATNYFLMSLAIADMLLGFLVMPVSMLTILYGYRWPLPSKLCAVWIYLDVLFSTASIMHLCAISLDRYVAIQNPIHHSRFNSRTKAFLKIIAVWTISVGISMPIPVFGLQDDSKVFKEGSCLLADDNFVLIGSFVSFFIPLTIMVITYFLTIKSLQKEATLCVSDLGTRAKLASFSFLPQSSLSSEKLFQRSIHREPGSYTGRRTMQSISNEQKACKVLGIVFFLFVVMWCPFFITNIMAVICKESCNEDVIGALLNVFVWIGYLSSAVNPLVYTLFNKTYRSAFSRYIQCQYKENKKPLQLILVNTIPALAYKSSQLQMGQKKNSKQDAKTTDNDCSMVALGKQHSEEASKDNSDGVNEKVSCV
M3 muscarinic receptor, sequence (P20309 whole entry): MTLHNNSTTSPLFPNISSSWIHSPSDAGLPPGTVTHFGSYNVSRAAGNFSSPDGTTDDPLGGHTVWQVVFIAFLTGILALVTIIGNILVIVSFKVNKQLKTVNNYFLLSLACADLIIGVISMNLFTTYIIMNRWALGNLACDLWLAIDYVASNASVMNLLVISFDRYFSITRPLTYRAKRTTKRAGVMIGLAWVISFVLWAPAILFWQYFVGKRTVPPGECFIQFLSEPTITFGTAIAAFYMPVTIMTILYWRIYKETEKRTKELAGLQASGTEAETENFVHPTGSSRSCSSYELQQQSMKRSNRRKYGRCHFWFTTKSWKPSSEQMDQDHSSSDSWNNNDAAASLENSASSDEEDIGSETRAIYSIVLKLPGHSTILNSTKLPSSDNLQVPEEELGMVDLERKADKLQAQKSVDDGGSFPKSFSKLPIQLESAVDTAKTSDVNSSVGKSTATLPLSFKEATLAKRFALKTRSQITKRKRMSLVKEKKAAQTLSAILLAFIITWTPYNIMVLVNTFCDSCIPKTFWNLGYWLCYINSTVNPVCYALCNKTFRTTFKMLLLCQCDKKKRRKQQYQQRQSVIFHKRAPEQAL
T2 sequence (P31388 whole entry): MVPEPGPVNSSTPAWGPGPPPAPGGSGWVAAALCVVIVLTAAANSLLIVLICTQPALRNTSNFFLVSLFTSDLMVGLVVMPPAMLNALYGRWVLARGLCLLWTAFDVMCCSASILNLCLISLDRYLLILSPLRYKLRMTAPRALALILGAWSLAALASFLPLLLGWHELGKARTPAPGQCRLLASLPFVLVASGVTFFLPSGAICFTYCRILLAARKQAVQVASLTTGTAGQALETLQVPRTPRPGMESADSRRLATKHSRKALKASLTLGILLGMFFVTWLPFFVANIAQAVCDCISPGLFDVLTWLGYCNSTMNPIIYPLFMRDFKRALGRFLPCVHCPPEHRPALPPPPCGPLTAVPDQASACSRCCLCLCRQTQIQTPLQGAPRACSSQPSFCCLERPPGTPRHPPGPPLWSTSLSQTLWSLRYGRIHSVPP
h5-HT2B, sequence (P41595 whole entry): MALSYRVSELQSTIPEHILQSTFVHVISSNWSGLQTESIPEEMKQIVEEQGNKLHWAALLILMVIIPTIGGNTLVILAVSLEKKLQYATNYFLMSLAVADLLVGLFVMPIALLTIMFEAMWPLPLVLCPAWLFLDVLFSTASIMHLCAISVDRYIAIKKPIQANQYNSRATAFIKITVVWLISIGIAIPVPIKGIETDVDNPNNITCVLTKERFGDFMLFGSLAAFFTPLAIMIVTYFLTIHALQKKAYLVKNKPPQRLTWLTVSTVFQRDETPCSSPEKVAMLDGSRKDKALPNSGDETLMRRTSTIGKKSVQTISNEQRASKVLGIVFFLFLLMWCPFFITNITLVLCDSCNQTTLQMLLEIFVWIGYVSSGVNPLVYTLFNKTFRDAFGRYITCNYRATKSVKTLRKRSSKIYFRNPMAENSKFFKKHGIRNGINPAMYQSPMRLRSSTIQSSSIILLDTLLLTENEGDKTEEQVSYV
MAO-A, sequence (P21397 whole entry): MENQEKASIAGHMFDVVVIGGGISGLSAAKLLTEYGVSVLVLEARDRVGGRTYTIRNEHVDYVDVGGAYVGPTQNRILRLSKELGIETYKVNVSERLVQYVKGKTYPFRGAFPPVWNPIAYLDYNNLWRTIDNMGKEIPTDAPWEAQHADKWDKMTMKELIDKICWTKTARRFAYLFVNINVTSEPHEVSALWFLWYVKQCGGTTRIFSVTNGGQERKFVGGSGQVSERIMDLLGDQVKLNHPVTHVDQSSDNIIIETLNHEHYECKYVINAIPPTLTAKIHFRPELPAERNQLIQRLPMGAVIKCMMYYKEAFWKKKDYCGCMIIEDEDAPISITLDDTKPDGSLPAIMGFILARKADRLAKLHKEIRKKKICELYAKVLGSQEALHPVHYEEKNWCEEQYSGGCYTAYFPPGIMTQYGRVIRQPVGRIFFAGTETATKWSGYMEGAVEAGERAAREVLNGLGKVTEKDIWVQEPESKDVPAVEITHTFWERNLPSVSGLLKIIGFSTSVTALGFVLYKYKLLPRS
m5-HT3 (5-HT3A receptor), sequence (P23979 24-489): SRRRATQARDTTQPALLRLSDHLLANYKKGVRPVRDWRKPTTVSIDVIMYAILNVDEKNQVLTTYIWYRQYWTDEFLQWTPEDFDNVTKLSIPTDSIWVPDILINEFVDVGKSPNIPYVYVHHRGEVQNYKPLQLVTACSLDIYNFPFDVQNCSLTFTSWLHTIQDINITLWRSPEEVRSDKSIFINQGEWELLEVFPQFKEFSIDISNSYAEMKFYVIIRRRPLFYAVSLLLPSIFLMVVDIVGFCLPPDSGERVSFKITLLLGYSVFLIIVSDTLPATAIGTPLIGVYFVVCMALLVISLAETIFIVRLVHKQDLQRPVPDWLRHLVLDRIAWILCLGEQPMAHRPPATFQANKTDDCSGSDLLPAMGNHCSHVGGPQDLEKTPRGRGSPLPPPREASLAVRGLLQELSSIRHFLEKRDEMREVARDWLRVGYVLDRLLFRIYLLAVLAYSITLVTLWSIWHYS
r5-HT6, sequence (P31388 whole entry): as the sequence (P31388 whole entry) above
h5-HT5A, sequence (P47898 whole entry): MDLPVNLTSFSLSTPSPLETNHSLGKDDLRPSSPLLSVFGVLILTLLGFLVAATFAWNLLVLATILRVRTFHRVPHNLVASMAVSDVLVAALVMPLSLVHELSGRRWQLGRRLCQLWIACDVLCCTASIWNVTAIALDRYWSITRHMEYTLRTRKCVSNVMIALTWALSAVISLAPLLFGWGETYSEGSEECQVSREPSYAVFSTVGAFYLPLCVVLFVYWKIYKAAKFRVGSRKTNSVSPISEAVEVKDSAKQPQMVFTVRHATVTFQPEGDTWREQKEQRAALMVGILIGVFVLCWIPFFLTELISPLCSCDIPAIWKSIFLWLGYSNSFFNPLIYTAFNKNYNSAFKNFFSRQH

In the case of O=C1Nc2ccc(Cl)cc2[C@@](C#CC2CC2)(C(F)(F)F)O1 [efavirenz, (4S)-6-chloro-4-(2-cyclopropylethynyl)-4-(trifluoromethyl)-2,4-dihydro-1H-3,1-benzoxazin-2-one], the “inhibition of agonist responses (5-HT, TCB-2, α-Me-5HT)” value (5-HT2A receptor [1]; 30 μM antagonist) is reported as “significant inhibition”, the Schild plot slope (5-HT2A receptor [1]; (±)-DOI as agonist) is reported as 1.06 ± 0.054 and the Schild plot slope (5-HT2A receptor [1]; LSD as agonist) is reported as 1.2 ± 0.16. The “concentration partially suppressing ACh mediated activation” value (M3 muscarinic receptor; EC50 concentration of acetylcholine) was no less than 10 µM, the “extent of block of ACh response” value (M3 muscarinic receptor; highest concentration that could be tested) was “unable to produce a complete block” and the “effect alone on intracellular Ca2+ levels” value (M3 muscarinic receptor; untransfected HEK293 cells) was “had no effect”. For the same compound, the Gq-mediated response (untransfected CHO cells) was “No Gq-mediated response”, the “effect on 5-HT agonist effect” value (5-HT6 receptor [2]) was “completely overcame the agonist effect of 5-HT but also reduced activity to below basal levels” and the “effect on basal cAMP” value (5-HT6 receptor [2]) was “lowers the basal levels of cAMP”. The “change in cAMP levels” value (untransfected HeLa cells) was “no significant changes in cAMP levels”, the “effect on (−)-epinephrine stimulated cAMP response” value [3] was “failed to significantly modulate” and the “antagonism of 100 nM 5-HT calcium response” value (5-HT2A receptor [4]; cells pretreated 3 days with 30 μM 5-HT) was 49%. The “antagonism of 100 nM 5-HT calcium response” value (5-HT2A receptor [4]; cells pretreated 3 days with 30 μM efavirenz) was 49%, the “antagonism of 100 nM 5-HT calcium response” value (5-HT2A receptor [4]; cells pretreated 3 days with DMSO vehicle) was 48% and the “reduction of the 100 μM maximal 5-HT response” value (5-HT2A receptor [4]; 3 day exposure to 30 μM, vs 3 day vehicle) was 81%. The “decrease in receptor density (Bmax)” value (5-HT2A receptor [5]) was 52%, the “decrease of MAO-A activity” value (MAO-A) was 36 ± 1.7% and the “displacement of specifically bound radioligand” value (h5-HT2C) was no less than 75%. For the same compound, the “interaction (radioligand displacement)” value (h5-HT1A) was “less pronounced or no detectable interaction”, the “mean concentration in CSF” value ([6]; across studies) was “approximately 44 nM” and the “CSF levels as % of plasma concentrations” value [6] was 0.52%. For the same compound, the incidence of hallucinations ([7]; large clinical studies, 1008 patients) was 1.2%, the frequency of hallucinations ([7]; three clinical studies, 114–197 patients each) was 6–31% and the “effect on GABA-mediated chloride currents” value (GABAA receptor) was “potentiated GABA-mediated chloride currents”. For the same compound, the transporter function (DAT) was “functioned as a DAT and SERT blocker”, the “substitution in rats trained to discriminate LSD from saline” value [8] was “partially substituted for LSD” and the “novel open field locomotor activity” value [9] was “dose-dependently depressed novel open field locomotor activity”. For the same compound, the interaction (dopamine receptors) was “did not have significant interactions”, the interaction (NMDA receptors) was “did not have significant interactions” and the interaction (muscarinic receptors) was “did not have high affinity interactions”. For the same compound, the “plasma levels needed to keep HIV-1 suppressed” value (HIV-1) was 1 to 4 µg/mL, the “plasma levels resulting in NPAE” value (HIV-1) was “greater than 2.74 μg/mL” and the “plasma levels resulting in virologic failure” value (HIV-1) was less than 1 μg/mL. The Ki (5-HT2C receptor) was 1700 ± 280 nM, the “pseudo Hill slope” value (5-HT2C receptor; competition binding) was −1.22 ± −0.18 and the Ki (5-HT6 receptor [10]) was 2200 ± 270 nM. For the same compound, the “pseudo Hill slope” value (5-HT6 receptor [10]; competition binding) was −1.36 ± −0.14, the “displacement of specifically bound radioligand” value (h5-HT2B) was “greater than 50%” and the “displacement of specifically bound radioligand” value (r5-HT6) was no less than 75%. The “interaction (radioligand displacement)” value (h5-HT5A) was “less pronounced or no detectable interaction”, the “displacement of [3H]-granisetron binding” value (m5-HT3 (5-HT3A receptor)) was “did not significantly displace” and the “interaction (radioligand displacement)” value (gp5-HT4) was “less pronounced or no detectable interaction”.
